Source: patent US20230085307A1, “PYRIDAZINONE COMPOUND AND HERBICIDE” (NISSAN CHEMICAL CORPORATION, priority 2019, published 2023)

Columns and labels:
late watergrass = assay: Test Example 2: herbicidal activity, application during weed generation under submerged conditions (Table 17, symbol A); type: in vivo, late watergrass (Echinochloa oryzicola); settings: AAH 320 g/ha; application during weed generation, submerged conditions
Summary of the method: (§1)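 Mixed weed seedlings in alluvial soil under a 4 cm water layer, greenhouse-grown at 25–30° C. Compound given as a diluted emulsion into the floodwater at the 1–2 leaf stage; response graded after three weeks.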

Japanese bulrush = assay: Test Example 2: herbicidal activity, application during weed generation under submerged conditions (Table 17, symbol B); type: in vivo, Japanese bulrush (Schoenoplectus juncoides); settings: AAH 320 g/ha; application during weed generation, submerged conditions
Summary of the method: as §1

oval-leafed pondweed = assay: Test Example 2: herbicidal activity, application during weed generation under submerged conditions (Table 17, symbol C); type: in vivo, oval-leafed pondweed (Monochoria vaginalis); settings: AAH 320 g/ha; application during weed generation, submerged conditions
Summary of the method: as §1

barnyard grass [1] = assay: Test Example 3: herbicidal effect by foliage application, Wagner pot (Table 18, symbol H); type: in vivo, barnyard grass (Echinochloa crus-galli); settings: 320 g/ha
Summary of the method: (§2)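 Plants were sown in alluvial soil held under 0.1–0.5 cm standing water and grown 14 days in a greenhouse at 25–30 °C. An emulsifiable formulation, water-diluted to the set dose, was then sprayed onto the foliage, and effects were scored three weeks later using previously defined criteria.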

Chinese sprangletop = assay: Test Example 3: herbicidal effect by foliage application, Wagner pot (Table 18, symbol D); type: in vivo, chinese sprangletop (Leptochloa chinensis); settings: 320 g/ha
Summary of the method: as §2

rice flat sedge = assay: Test Example 3: herbicidal effect by foliage application, Wagner pot (Table 18, symbol E); type: in vivo, rice flat sedge (Cyperus iria); settings: 320 g/ha
Summary of the method: as §2

southern crabgrass [2] = assay: Test Example 4: herbicidal effect by soil treatment (Table 19, symbol F); type: in vivo, southern crabgrass (Digitaria ciliaris); settings: AAH 320 g/ha
Summary of the method: (§3)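 Seeds were sown in sterilized diluvial soil and covered with about 1.5 cm of soil. An emulsion formulation diluted with water to a predetermined herbicide amount was sprayed evenly onto the soil surface. Plants grew in a greenhouse at 25° C. to 30° C., and the effect was scored three weeks after application using criteria from an earlier test.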

green foxtail [3] = assay: Test Example 4: herbicidal effect by soil treatment (Table 19, symbol G); type: in vivo, green foxtail (Setaria viridis); settings: AAH 320 g/ha
Summary of the method: as §3

barnyard grass [4] = assay: Test Example 4: herbicidal effect by soil treatment (Table 19, symbol H); type: in vivo, barnyard grass (Echinochloa crus-galli); settings: AAH 320 g/ha
Summary of the method: as §3

wild oat [5] = assay: Test Example 4: herbicidal effect by soil treatment (Table 19, symbol I); type: in vivo, wild oat (Avena fatua); settings: AAH 320 g/ha
Summary of the method: as §3

blackgrass [6] = assay: Test Example 4: herbicidal effect by soil treatment (Table 19, symbol J); type: in vivo, blackgrass (Alopecurus myosuroides); settings: AAH 320 g/ha
Summary of the method: as §3

Italian ryegrass [7] = assay: Test Example 4: herbicidal effect by soil treatment (Table 19, symbol K); type: in vivo, Italian ryegrass (Lolium multiflorum); settings: AAH 320 g/ha
Summary of the method: as §3

windgrass [8] = assay: Test Example 4: herbicidal effect by soil treatment (Table 19, symbol L); type: in vivo, windgrass (Apera spica-venti); settings: AAH 320 g/ha
Summary of the method: as §3

velvetleaf [9] = assay: Test Example 4: herbicidal effect by soil treatment (Table 19, symbol M); type: in vivo, velvetleaf (Abutilon theophrasti); settings: AAH 320 g/ha
Summary of the method: as §3

redroot pigweed [10] = assay: Test Example 4: herbicidal effect by soil treatment (Table 19, symbol N); type: in vivo, redroot pigweed (Amaranthus retroflexus); settings: AAH 320 g/ha
Summary of the method: as §3

lambsquarters [11] = assay: Test Example 4: herbicidal effect by soil treatment (Table 19, symbol O); type: in vivo, lambsquarters (Chenopodium album); settings: AAH 320 g/ha
Summary of the method: as §3

chickweed [12] = assay: Test Example 4: herbicidal effect by soil treatment (Table 19, symbol P); type: in vivo, common chickweed (Stellaria media); settings: AAH 320 g/ha
Summary of the method: as §3

persian speedwell [13] = assay: Test Example 4: herbicidal effect by soil treatment (Table 19, symbol R); type: in vivo, Persian speedwell (Veronica persica); settings: AAH 320 g/ha
Summary of the method: as §3

southern crabgrass [14] = assay: Test Example 5: herbicidal effect by foliage application, plastic box (Table 20, symbol F); type: in vivo, southern crabgrass (Digitaria ciliaris); settings: foliage application, AAH 320 g/ha, three weeks after application
Summary of the method: (§4)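 Plants sown in sterilized diluvial soil and grown 14 days in a greenhouse at 25° C to 30° C, then sprayed on the foliage with the compound's emulsion diluted in water to a predetermined herbicide amount. Injury to weeds and crops scored three weeks after application on a visual rating scale.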

green foxtail [15] = assay: Test Example 5: herbicidal effect by foliage application, plastic box (Table 20, symbol G); type: in vivo, green foxtail (Setaria viridis); settings: foliage application, AAH 320 g/ha, three weeks after application
Summary of the method: as §4

barnyard grass [16] = assay: Test Example 5: herbicidal effect by foliage application, plastic box (Table 20, symbol H); type: in vivo, barnyard grass (Echinochloa crus-galli); settings: foliage application, AAH 320 g/ha, three weeks after application
Summary of the method: as §4

wild oat [17] = assay: Test Example 5: herbicidal effect by foliage application, plastic box (Table 20, symbol I); type: in vivo, wild oat (Avena fatua); settings: foliage application, AAH 320 g/ha, three weeks after application
Summary of the method: as §4

blackgrass [18] = assay: Test Example 5: herbicidal effect by foliage application, plastic box (Table 20, symbol J); type: in vivo, blackgrass (Alopecurus myosuroides); settings: foliage application, AAH 320 g/ha, three weeks after application
Summary of the method: as §4

Italian ryegrass [19] = assay: Test Example 5: herbicidal effect by foliage application, plastic box (Table 20, symbol K); type: in vivo, Italian ryegrass (Lolium multiflorum); settings: foliage application, AAH 320 g/ha, three weeks after application
Summary of the method: as §4

windgrass [20] = assay: Test Example 5: herbicidal effect by foliage application, plastic box (Table 20, symbol L); type: in vivo, windgrass (Apera spica-venti); settings: foliage application, AAH 320 g/ha, three weeks after application
Summary of the method: as §4

velvetleaf [21] = assay: Test Example 5: herbicidal effect by foliage application, plastic box (Table 20, symbol M); type: in vivo, velvetleaf (Abutilon theophrasti); settings: foliage application, AAH 320 g/ha, three weeks after application
Summary of the method: as §4

redroot pigweed [22] = assay: Test Example 5: herbicidal effect by foliage application, plastic box (Table 20, symbol N); type: in vivo, redroot pigweed (Amaranthus retroflexus); settings: foliage application, AAH 320 g/ha, three weeks after application
Summary of the method: as §4

lambsquarters [23] = assay: Test Example 5: herbicidal effect by foliage application, plastic box (Table 20, symbol O); type: in vivo, lambsquarters (Chenopodium album); settings: foliage application, AAH 320 g/ha, three weeks after application
Summary of the method: as §4

chickweed [24] = assay: Test Example 5: herbicidal effect by foliage application, plastic box (Table 20, symbol P); type: in vivo, common chickweed (Stellaria media); settings: foliage application, AAH 320 g/ha, three weeks after application
Summary of the method: as §4

persian speedwell [25] = assay: Test Example 5: herbicidal effect by foliage application, plastic box (Table 20, symbol R); type: in vivo, Persian speedwell (Veronica persica); settings: foliage application, AAH 320 g/ha, three weeks after application
Summary of the method: as §4

Row | Structure (SMILES) | herbicidal effect rating, A: late watergrass (late watergrass) | herbicidal effect rating, B: Japanese bulrush (Japanese bulrush) | herbicidal effect rating, C: oval-leafed pondweed (oval-leafed pondweed) | herbicidal effect on H (barnyard grass), rating 0-5 (barnyard grass [1]) | herbicidal effect on D (Chinese sprangletop), rating 0-5 (Chinese sprangletop) | herbicidal effect on E (rice flat sedge), rating 0-5 (rice flat sedge) | F: southern crabgrass, herbicidal effect rating (southern crabgrass [2]) | G: green foxtail, herbicidal effect rating (green foxtail [3]) | H: barnyard grass, herbicidal effect rating (barnyard grass [4]) | I: wild oat, herbicidal effect rating (wild oat [5]) | J: blackgrass, herbicidal effect rating (blackgrass [6]) | K: Italian ryegrass, herbicidal effect rating (Italian ryegrass [7]) | L: windgrass, herbicidal effect rating (windgrass [8]) | M: velvetleaf, herbicidal effect rating (velvetleaf [9]) | N: redroot pigweed, herbicidal effect rating (redroot pigweed [10]) | O: lambsquarters, herbicidal effect rating (lambsquarters [11]) | P: chickweed, herbicidal effect rating (chickweed [12]) | R: persian speedwell, herbicidal effect rating (persian speedwell [13]) | F: southern crabgrass, herbicidal effect (southern crabgrass [14]) | G: green foxtail, herbicidal effect (green foxtail [15]) | also measured
1 | Cc1nn(C)c(=O)c(-c2c(-c3ccccc3OCC(F)(F)F)sc3ccccc23)c1O [1-118] | 3 (Herbicidal rate of 40% or more and less than 70%) | 0 (Herbicidal rate of 5% or less (almost no effect)) | 0 (Herbicidal rate of 5% or less (almost no effect)) | 4 (Herbicidal rate of 70% or more and less than 90%) | 2 (Herbicidal rate of 20% or more and less than 40%) | 2 (Herbicidal rate of 20% or more and less than 40%) | 1 (Herbicidal rate of 5% or more and less than 20%) | 3 (Herbicidal rate of 40% or more and less than 70%) | 4 (Herbicidal rate of 70% or more and less than 90%) | 3 (Herbicidal rate of 40% or more and less than 70%) | 3 (Herbicidal rate of 40% or more and less than 70%) | 0 (Herbicidal rate of 5% or less (almost no effect)) | 3 (Herbicidal rate of 40% or more and less than 70%) | 3 (Herbicidal rate of 40% or more and less than 70%) | 5 (Herbicidal rate of 90% or more (almost completely withered)) | 5 (Herbicidal rate of 90% or more (almost completely withered)) | 3 (Herbicidal rate of 40% or more and less than 70%) | 4 (Herbicidal rate of 70% or more and less than 90%) | 5 (Herbicidal rate of 90% or more (almost completely withered)) | 5 (Herbicidal rate of 90% or more (almost completely withered)) | H: barnyard grass, herbicidal effect (barnyard grass [16]): 2 (Herbicidal rate of 20% or more and less than 40%); I: wild oat, herbicidal effect (wild oat [17]): 4 (Herbicidal rate of 70% or more and less than 90%); J: blackgrass, herbicidal effect (blackgrass [18]): 4 (Herbicidal rate of 70% or more and less than 90%); K: Italian ryegrass, herbicidal effect (Italian ryegrass [19]): 4 (Herbicidal rate of 70% or more and less than 90%); L: windgrass, herbicidal effect (windgrass [20]): 5 (Herbicidal rate of 90% or more (almost completely withered)); M: velvetleaf, herbicidal effect (velvetleaf [21]): 5 (Herbicidal rate of 90% or more (almost completely withered)); N: redroot pigweed, herbicidal effect (redroot pigweed [22]): 5 (Herbicidal rate of 90% or more (almost completely withered)); O: lambsquarters, herbicidal effect (lambsquarters [23]): 3 (Herbicidal rate of 40% or more and less than 70%); P: chickweed, herbicidal effect (chickweed [24]): 5 (Herbicidal rate of 90% or more (almost completely withered)); R: persian speedwell, herbicidal effect (persian speedwell [25]): 5 (Herbicidal rate of 90% or more (almost completely withered))
2 | Cc1nn(C)c(=O)c(-c2c(-c3ccc(OCc4cnc(Cl)s4)cc3)sc3ccccc23)c1O [1-144] | 2 (Herbicidal rate of 20% or more and less than 40%) | 0 (Herbicidal rate of 5% or less (almost no effect)) | 0 (Herbicidal rate of 5% or less (almost no effect)) | 5 (Herbicidal rate of 90% or more (almost completely withered)) | 3 (Herbicidal rate of 40% or more and less than 70%) | 5 (Herbicidal rate of 90% or more (almost completely withered)) | 0 (Herbicidal rate of 5% or less (almost no effect)) | 0 (Herbicidal rate of 5% or less (almost no effect)) | 0 (Herbicidal rate of 5% or less (almost no effect)) | 0 (Herbicidal rate of 5% or less (almost no effect)) | 1 (Herbicidal rate of 5% or more and less than 20%) | 3 (Herbicidal rate of 40% or more and less than 70%) | 0 (Herbicidal rate of 5% or less (almost no effect)) | 0 (Herbicidal rate of 5% or less (almost no effect)) | 0 (Herbicidal rate of 5% or less (almost no effect)) | 0 (Herbicidal rate of 5% or less (almost no effect)) | 3 (Herbicidal rate of 40% or more and less than 70%) | 3 (Herbicidal rate of 40% or more and less than 70%) | 5 (Herbicidal rate of 90% or more (almost completely withered)) | 4 (Herbicidal rate of 70% or more and less than 90%) | H: barnyard grass, herbicidal effect (barnyard grass [16]): 5 (Herbicidal rate of 90% or more (almost completely withered)); I: wild oat, herbicidal effect (wild oat [17]): 0 (Herbicidal rate of 5% or less (almost no effect)); J: blackgrass, herbicidal effect (blackgrass [18]): 5 (Herbicidal rate of 90% or more (almost completely withered)); K: Italian ryegrass, herbicidal effect (Italian ryegrass [19]): 4 (Herbicidal rate of 70% or more and less than 90%); L: windgrass, herbicidal effect (windgrass [20]): 5 (Herbicidal rate of 90% or more (almost completely withered)); M: velvetleaf, herbicidal effect (velvetleaf [21]): 2 (Herbicidal rate of 20% or more and less than 40%); N: redroot pigweed, herbicidal effect (redroot pigweed [22]): 3 (Herbicidal rate of 40% or more and less than 70%); O: lambsquarters, herbicidal effect (lambsquarters [23]): 1 (Herbicidal rate of 5% or more and less than 20%); P: chickweed, herbicidal effect (chickweed [24]): 5 (Herbicidal rate of 90% or more (almost completely withered)); R: persian speedwell, herbicidal effect (persian speedwell [25]): 5 (Herbicidal rate of 90% or more (almost completely withered))
